Entries after “also recorded” stand apart in the source; their conditions may differ.
Key:
HEK293T cells = assay: MTT assay; format: cell-based, human; conditions: near millimolar concentrations (100 to 800 µM, 24 hours)
Source text: We next examined the orthogonal pairs for their ability to modulate lysine demethylation on the chromosomal histone in cultured human cells (Figure 4A). To this end, we generated the F185A mutation in full-length KDM4A carrying all of the functional domains. Furthermore, to enhance cell permeability, we synthesized two chemoselective ester prodrugs 6A and 6B carrying either an n-octyl or a trifluoromethyl benzyl ester as the lipophilic moiety, respectively (Figures 4A, S5, and S6, Scheme S3).[46],[47] We confirmed the cell permeability of 6A and 6B and their subsequent hydrolysis to 6 by analyzing extracts of compound-treated HEK293T cells using LC-HRMS. […]
12. Examining cell permeability and toxicity of 6A and 6B
In a T-25 cell culture flask, HEK293T cells were treated with either 200 µM L-Leu octyl-ester NOG 6A, L-Leu TFMB-ester NOG 6B, or corresponding volume of DMSO. Following 24 hours of incubation at 37 °C, media was removed and 3mL of 80:20 methanol: water was added while the flasks with cells were on dry ice. The flasks were then incubated in -80 °C for 10 minutes to allow cell lysis. […]
To assess the toxicity of 6A/B on HEK 293-T cells (ATCC CRL-1573) were counted, and 5,000 cells were plated into a 96 well cell culture plate (Corning) for n=5 of each treatment. […] Absorbance at 570nm was quantified via TECAN Infinite […]

[1] = molecular target: T1, full-length KDM4A-F185A (asKDM4A) (Homo sapiens, UniProt O75164, F185A); assay: H3K9me3 Western blot of nuclear extracts of transfected HEK293T cells; format: cell-based; conditions: varying concentrations (25-200 µM)
T1 construct: we generated the F185A mutation in full-length KDM4A carrying all of the functional domains; host or cells: HEK293T
Experimental: HEK293T cells were transiently transfected with asKDM4A and treated with varying concentrations of 6A or 6B. […] To further confirm the activity of the enzyme–inhibitor pair, we performed tandem mass spectrometry of tryptic histones isolated from HEK293T cells expressing asKDM4A in the presence or absence of 100 μM 6A.
KDM4A mammalian expression plasmid in CMV vector was purchased from Addgene (plasmid #24180). KDM4B mammalian expression plasmid in CMV vector was purchased from Addgene (plasmid #24181). KDM4C mammalian expression plasmid in CMV vector was purchased from Addgene (plasmid #24214). KDM4D mammalian expression plasmid in pReciever vector was purchased from Genecopoia (EX-Z0917-M06.) KDME mammalian expression plasmid in pRP-EXP was designed from Vector Builder. The KDM4A-F185A, KDM4B-F186A, KDM4C -F187A, KDM4D-F189A, and KDM4E F186A mutants were generated using Quikchange Lightening Mutagenesis Kit (Agilent) according to manufacturer’s protocol and confirmed by Sanger […]
For the time dependent imaging, cells containing the transfected KDM4A mutant were identified by their HA signal. […] The mean signal was then measured for H3K9me3 or BrdU only within the cells expressing the KDM4A mutant. To compare changes in H3K9me3 or BrdU between trials, the quantification values were normalized to the mean signal at t=0. […]

T1 sequence (O75164 whole entry F185A, the tested form may be a part): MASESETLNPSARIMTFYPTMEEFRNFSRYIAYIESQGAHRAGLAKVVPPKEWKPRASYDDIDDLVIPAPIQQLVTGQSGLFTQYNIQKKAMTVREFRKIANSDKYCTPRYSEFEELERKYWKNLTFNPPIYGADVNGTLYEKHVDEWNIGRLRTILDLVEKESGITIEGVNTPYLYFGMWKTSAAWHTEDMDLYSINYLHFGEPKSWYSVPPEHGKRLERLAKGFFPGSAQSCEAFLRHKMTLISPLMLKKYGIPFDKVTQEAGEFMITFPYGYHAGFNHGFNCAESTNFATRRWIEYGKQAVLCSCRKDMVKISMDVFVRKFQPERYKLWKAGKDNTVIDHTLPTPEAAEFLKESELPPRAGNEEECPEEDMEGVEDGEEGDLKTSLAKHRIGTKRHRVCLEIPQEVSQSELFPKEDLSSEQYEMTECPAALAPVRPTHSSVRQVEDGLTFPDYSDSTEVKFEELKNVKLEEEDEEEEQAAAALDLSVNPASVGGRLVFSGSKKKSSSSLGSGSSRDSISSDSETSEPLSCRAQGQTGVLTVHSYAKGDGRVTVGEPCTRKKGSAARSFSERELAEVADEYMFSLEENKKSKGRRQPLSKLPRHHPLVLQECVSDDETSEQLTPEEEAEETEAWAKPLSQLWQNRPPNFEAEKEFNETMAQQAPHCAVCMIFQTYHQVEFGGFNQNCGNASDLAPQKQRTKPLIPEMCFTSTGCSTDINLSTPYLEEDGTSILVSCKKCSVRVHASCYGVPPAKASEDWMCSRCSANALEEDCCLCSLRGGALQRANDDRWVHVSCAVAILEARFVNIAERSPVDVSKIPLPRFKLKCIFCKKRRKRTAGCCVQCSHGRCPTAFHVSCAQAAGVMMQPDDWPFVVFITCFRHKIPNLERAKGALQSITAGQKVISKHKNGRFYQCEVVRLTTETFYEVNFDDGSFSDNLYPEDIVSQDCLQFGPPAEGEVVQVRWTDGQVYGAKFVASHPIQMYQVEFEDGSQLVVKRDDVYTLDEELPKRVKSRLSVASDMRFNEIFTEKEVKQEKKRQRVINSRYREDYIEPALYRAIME

CCCCCCCCOC(=O)C(=O)NC(CC(C)C)C(=O)O [6A, L-Leu octyl-ester NOG]
cytotoxicity (HEK293T cells): marginal cytotoxicity | inhibition of asKDM4A (F185A) H3K9me3 demethylation [1]: Dose-dependent inhibition; also recorded: inhibited by both prodrugs in a dose-dependent manner

CC(C)CC(NC(=O)C(=O)OCc1cccc(C(F)(F)F)c1)C(=O)O [6B, L-Leu TFMB-ester NOG]
cytotoxicity (HEK293T cells): marginal cytotoxicity | inhibition of asKDM4A (F185A) H3K9me3 demethylation [1]: Dose-dependent inhibition; also recorded: inhibited by both prodrugs in a dose-dependent manner

Reference: paper PMC11783601, “Analogue-Sensitive Inhibition of Histone Demethylases Uncovers Member-Specific Function in Ribosomal Protein Synthesis” (Journal of the American Chemical Society, 2025)
